Source: US7169792B2, “Method of treating bacterial infections using gemifloxacin or a salt thereof and a β-lactam antibiotic” (priority 2002, dated 2007)

Tests used:
[1] = tested on: E. faecalis ATCC 29212; test: checkerboard titration, gemifloxacin and cefotaxime (MIC, FIC); assay type: cell-based, Enterococcus faecalis
Method: 1) The combined effect of gemifloxacin and cefotaxime was investigated in E. faecalis by using a checkerboard titration method. Evaluation for synergistic activity was carried out by calculation of fractional inhibitory concentrations (FICs) according to the method of Eliopoulos et al (1996, Antimicrobial Combinations, Antibiotics in Laboratory Medicine, Victor Lorian, 4th Edition, pp 337–338, Baltimore, Md., Williams and Wilkins).
(§1) E. faecalis ATCC 29212 was obtained from the SmithKline Beecham Anti-Infectives Research Culture Collection and stored at −80° C. in 10% glycerol. Before testing, the isolate was passaged onto agar plates (trypticase soy agar containing 5% sheeps blood) from the frozen stock for two consecutive days. Cation adjusted Mueller Hinton broth (BBL, Cockeysville, Md.) was used for the isolate.
(§2) Checkerboard microtitre broth dilution plates were prepared using the Hamilton MicroLab AT Plus system (Reno, Nev.). Two-fold serial dilutions (50 μl) of cefotaxime were made in columns 1 through 11 of a microtitre plate. Two-fold serial dilutions of gemifloxacin were prepared manually and the MicroLab AT Plus was used to dispense 25 μl of gemifloxacin at each concentration into rows A through G of the microtitre plate. The concentration range tested varied for each drug/organism combination to encompass the MIC endpoints of the individual components. Column 12 contained two fold serial dilutions of gemifloxacin only, and row H contained two fold serial dilutions of cefotaxie only. The last well (H) in column 12 was used as a positive growth control well, containing only medium and test isolate.
(§3) The bacteria were diluted to a 0.5 McFarland standard and then further diluted 1/50. Each well was inoculated with 25 μl of the isolate to give a final inoculum density of approximately 5×10^5 cfu/ml. The MicroLab AT Plus 2 was used to add the inoculum to the microtitre plates. After inoculation, the plates were covered with a 96 well microtitre plate lid and incubated at 35° C. in ambient air for 20–24 hours. A 10 μl aliquot of the inoculum was plated on trypticase soy agar containing 5% sheep blood to determine the purity of the final test inoculum.
(§4) Following incubation, a microtitre mirror reader (Cooke Instruments Ltd., England) was used to assist in determining the microdilution MIC endpoints. The MIC was determined as the lowest concentration of compound that inhibited visible growth of the organism.
(§5) The Fractional Inhibitory Concentrations (FICs) were calculated using the following formula: (A)/(MICA)+(B)/(MICB)=FICA+FICB=FICIndex wherein: • A is the MIC of drug A in the presence of drug B • B is the MIC of drug B in the presence of drug A • MIC A is the MIC of the organism to drug A alone • MIC B is the MIC of the organism to drug B alone • FIC A is the fractional inhibitory concentration of drug A • FIC B is the fractional inhibitory concentration of drug B
(§6) The FIC indices were interpreted using the following criteria: • ≦0.5=Synergy • >0.5–1=Additive • >1–2=Indifference • >2=Antagonism

[2] = tested on: E. coli ATCC 25922; test: checkerboard titration, gemifloxacin and cefaclor (MIC, FIC); assay type: cell-based, Escherichia coli
Method: as §2, §3, §4, §5, §6
as §1, with “3) E.” for “E.”, “coli” for “faecalis”, “25922” for “29212”, “Cation adjusted Mueller Hinton broth (BBL, Cockeysville, Md.) was used for the isolate.” left out
The combined effect of gemifloxacin and cefaclor was investigated in E. coli ATCC 25922 by using the checkerboard titration method described in Example 1. FIC Indices were calculated and interpreted as in Example 1.

[3] = drug alone, no unit in this line (other lines μg/ml)

MIC ([1]; Enterococcus faecalis, ATCC29212, in presence of cefotaxime 64 μg/ml, read-out: gemifloxacin MIC): 8 ng/mL
gemifloxacin MIC [1, 3]: 0.03
gemifloxacin MIC ([1]; in presence of cefotaxime 16 μg/ml): 0.008 µg/mL
gemifloxacin MIC ([1]; in presence of cefotaxime 32 μg/ml): 0.008 µg/mL
MIC ([2]; Escherichia coli, ATCC25922, in presence of cefaclor 1 μg/ml, read-out: gemifloxacin MIC): 2 ng/mL
gemifloxacin MIC [2, 3]: 0.008
Compound: CO/N=C1\CN(c2nc3c(cc2F)c(=O)c(C(=O)O)cn3C2CC2)CC1CN (racemic) [gemifloxacin, (R,S)-7-(3-aminomethyl-4-methoxyiminopyrrolidin-1-yl)-1-cyclopropyl-6-fluoro-4-oxo-1,4-dihydro-1,8-naphthyridine-3-carboxylic acid]
